For 20 compounds, IC50 results are on record in patent publication US10323022B2, “Pyrrolidinyl urea, pyrrolidinyl thiourea and pyrrolidinyl guanidine compounds as TrkA kinase inhibitors” (Array BioPharma Inc., priority 2011, dated 2019).

Structures are written as SMILES.

This test concerns the target TrkA (Homo sapiens (Human), UniProt P04629). Put plainly: TrkA Omnia Assay. Type of test: biochemical. The note with it: averaged IC50; 20 nM enzyme, 500 μM ATP, 10 μM peptide substrate. Here is the method: Trk enzymatic selectivity was assessed using Omnia™ Kinase Assay reagents from Invitrogen Corp. Enzyme (TrkA from Invitrogen Corp.) and test compound (various concentrations) were incubated for 10 minutes at ambient temperature in a 384-well white polypropylene plate (Nunc catalog#267462). Omnia Tyr Peptide #4, as well as ATP, were then added to the plate. Final concentrations were as follows: 20 nM enzyme, 500 μM of ATP, 10 μM peptide substrate. The assay buffer consisted of 25 mM MOPS pH 7.5, 0.005% (v/v) Triton X-100 and 5 mM MgCl2. The production of phosphorylated peptide was monitored continuously for 70 minutes using a Molecular Devices FlexStation II^384 microplate reader (excitation=360 nm; emission=485 nm). Initial rates were calculated from the progress curves. IC50 values were calculated from these rates using either a 4 or 5-parameter logistic curve fit.

TrkA, sequence (P04629 33-796): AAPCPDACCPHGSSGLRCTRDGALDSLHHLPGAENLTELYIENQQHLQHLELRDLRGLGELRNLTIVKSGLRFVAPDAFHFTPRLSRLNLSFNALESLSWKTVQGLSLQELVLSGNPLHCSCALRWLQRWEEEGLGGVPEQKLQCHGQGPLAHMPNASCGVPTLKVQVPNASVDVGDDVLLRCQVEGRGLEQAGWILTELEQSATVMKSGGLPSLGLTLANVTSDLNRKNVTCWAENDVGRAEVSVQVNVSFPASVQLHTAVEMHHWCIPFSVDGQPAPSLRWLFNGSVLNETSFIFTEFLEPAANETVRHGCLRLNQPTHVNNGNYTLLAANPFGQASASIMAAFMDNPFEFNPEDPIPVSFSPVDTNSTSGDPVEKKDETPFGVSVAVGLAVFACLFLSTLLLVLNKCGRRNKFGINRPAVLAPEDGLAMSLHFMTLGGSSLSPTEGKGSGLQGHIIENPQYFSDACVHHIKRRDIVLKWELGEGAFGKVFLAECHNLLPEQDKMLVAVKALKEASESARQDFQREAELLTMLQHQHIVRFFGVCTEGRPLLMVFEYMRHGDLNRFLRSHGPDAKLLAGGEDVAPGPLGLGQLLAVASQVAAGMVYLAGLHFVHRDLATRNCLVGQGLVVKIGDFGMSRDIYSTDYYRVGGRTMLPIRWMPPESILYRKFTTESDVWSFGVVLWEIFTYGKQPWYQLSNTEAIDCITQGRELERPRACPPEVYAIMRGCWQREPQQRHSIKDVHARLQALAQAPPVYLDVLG

The IC50 is the midpoint of a concentration-inhibition curve. High values mean a need for much substance, low ones inhibition by little substance. As to `COCCN1C[C@@H](NC(=O)Nc2c(C)c(-c3ccccn3)nn2-c2ccccc2)[C@H](c2ccc(F)c(F)c2)C1` [Example 488, 1-((3S,4R)-4-(3,4-difluorophenyl)-1-(2-methoxyethyl)pyrrolidin-3-yl)-3-(4-methyl-1-phenyl-3-(pyridin-2-yl)-1H-pyrazol-5-yl)urea], the IC50 is less than 100 nM.

`COCCN1C[C@@H](NC(=O)Nc2c(C(C)C)c(-c3cnn(C)c3)nn2-c2ccccc2)[C@H](c2ccc(F)c(F)c2)C1` [Example 310, 1-((3S,4R)-4-(3,4-difluorophenyl)-1-(2-methoxyethyl)pyrrolidin-3-yl)-3-(4-isopropyl-1′-methyl-1-phenyl-1H,1′H-[3,4′-bipyrazol]-5-yl)urea] returned an IC50 of 100 to 1000 nM.

`COCCN1C[C@@H](NC(=O)Nc2c(C)c(-c3nc(C(F)(F)F)no3)nn2-c2ccccc2)[C@H](c2ccc(F)cc2)C1` [Example 300, 1-((3S,4R)-4-(4-fluorophenyl)-1-(2-methoxyethyl)pyrrolidin-3-yl)-3-(4-methyl-1-phenyl-3-(3-(trifluoromethyl)-1,2,4-oxadiazol-5-yl)-1H-pyrazol-5-yl)urea] showed an IC50 of less than 100 nM.

The compound `CCOc1nn(-c2ccccc2)c(NC(=O)N[C@@H]2CN(CCOC)C[C@H]2c2ccc(F)c(F)c2)c1N` [Example 549, 1-(4-amino-3-ethoxy-1-phenyl-1H-pyrazol-5-yl)-3-((3S,4R)-4-(3,4-difluorophenyl)-1-(2-methoxyethyl)pyrrolidin-3-yl)urea] yielded an IC50 of less than 100 nM.

With `COCCN1C[C@@H](NC(=O)Nc2c(C)c(OCCN3CCN(C(C)=O)CC3)nn2-c2ccccc2)[C@H](c2ccc(F)c(F)c2)C1` [Example 546, 1-(3-(2-(4-acetylpiperazin-1-yl)ethoxy)-4-methyl-1-phenyl-1H-pyrazol-5-yl)-3-((3S,4R)-4-(3,4-difluorophenyl)-1-(2-methoxyethyl)pyrrolidin-3-yl)urea], the IC50 is less than 100 nM.

The compound `COCCN1C[C@@H](NC(=O)Nc2c(CO)cnn2-c2ccccc2)[C@H](c2ccc(F)c(F)c2)C1` [Example 175, 1-((3S,4R)-4-(3,4-difluorophenyl)-1-(2-methoxyethyl)pyrrolidin-3-yl)-3-(4-(hydroxymethyl)-1-phenyl-1H-pyrazol-5-yl)urea] displayed an IC50 of less than 100 nM.

Take `COCCN1C[C@@H](NC(=O)Nc2c(F)c(-c3cnn(C)c3)nn2-c2ccccc2)[C@H](c2cc(F)cc(F)c2)C1` [Example 439, 1-((3S,4R)-4-(3,5-difluorophenyl)-1-(2-methoxyethyl)pyrrolidin-3-yl)-3-(4-fluoro-1′-methyl-1-phenyl-1H,1′H-[3,4′-bipyrazol]-5-yl)urea]: the 50% inhibitory concentration (IC50) was less than 100 nM.

Consider `COCCN1C[C@@H](NC(=O)Nc2c(C)c(-c3ccccc3)nn2-c2ccccc2)[C@H](c2ccc(F)c(F)c2)C1` [Example 328, 1-((3S,4R)-4-(3,4-difluorophenyl)-1-(2-methoxyethyl)pyrrolidin-3-yl)-3-(4-methyl-1,3-diphenyl-1H-pyrazol-5-yl)urea], for which the IC50 was less than 100 nM.

Regarding `COCCN1C[C@@H](NC(=O)Nc2c(C)c(-c3ccccc3)nn2-c2ccccc2)[C@H](c2cc(F)cc(F)c2)C1` [Example 329, 1-((3S,4R)-4-(3,5-difluorophenyl)-1-(2-methoxyethyl)pyrrolidin-3-yl)-3-(4-methyl-1,3-diphenyl-1H-pyrazol-5-yl)urea], the IC50 is less than 100 nM.

The compound `COCCN1C[C@@H](NC(=O)Nc2c(C)c(OCC3COC3)nn2-c2ccccc2)[C@H](c2ccc(F)c(F)c2)C1` [Example 74, 1-((3S,4R)-4-(3,4-difluorophenyl)-1-(2-methoxyethyl)pyrrolidin-3-yl)-3-(4-methyl-3-(oxetan-3-ylmethoxy)-1-phenyl-1H-pyrazol-5-yl)urea] returned an IC50 of less than 100 nM.

On to `COCCCc1nn(-c2ccccc2)c(NC(=O)N[C@@H]2CN(CCOC)C[C@H]2c2ccc(F)c(F)c2)c1C` [Example 127, 1-((3S,4R)-4-(3,4-difluorophenyl)-1-(2-methoxyethyl)pyrrolidin-3-yl)-3-(3-(3-methoxypropyl)-4-methyl-1-phenyl-1H-pyrazol-5-yl)urea], for which the IC50 was less than 100 nM.

Consider `COCCN1C[C@@H](NC(=O)Nc2c(C)c(-c3cnc(C)s3)nn2-c2ccccc2)[C@H](c2ccc(F)c(F)c2)C1` [Example 510, 1-((3S,4R)-4-(3,4-difluorophenyl)-1-(2-methoxyethyl)pyrrolidin-3-yl)-3-(4-methyl-3-(2-methylthiazol-5-yl)-1-phenyl-1H-pyrazol-5-yl)urea], for which the IC50 is less than 100 nM.

The compound `COCCOc1nn(-c2ccccc2)c(NC(=O)N[C@@H]2CN(CC(F)(F)F)C[C@H]2c2ccccc2)c1C` (relative stereo) [Example 196, 1-(3-(2-methoxyethoxy)-4-methyl-1-phenyl-1H-pyrazol-5-yl)-3-((trans)-4-phenyl-1-(2,2,2-trifluoroethyl)pyrrolidin-3-yl)urea] gave an IC50 of less than 100 nM.

`COCCN1C[C@@H](NC(=O)Nc2c(Br)c(C(C)(C)C#N)nn2-c2ccccc2)[C@H](c2ccc(F)c(F)c2)C1` [Example 417, 1-(4-bromo-3-(2-cyanopropan-2-yl)-1-phenyl-1H-pyrazol-5-yl)-3-((3S,4R)-4-(3,4-difluorophenyl)-1-(2-methoxyethyl)pyrrolidin-3-yl)urea] registered an IC50 of less than 100 nM.

With `COCCN1C[C@@H](NC(=O)Nc2cc(-c3ccccc3)nn2C)[C@H](c2cccc(F)c2)C1` [Example 110, 1-((3S,4R)-4-(3-fluoro-phenyl)-1-(2-methoxy-ethyl)pyrrolidin-3-yl)-3-(1-methyl-3-phenyl-1H-pyrazol-5-yl)urea], the IC50 was less than 100 nM.

`COCCN1C[C@@H](NC(=O)Nc2c(Br)c(-c3ccccn3)nn2-c2ccccc2)[C@H](c2ccc(F)c(F)c2)C1` [Example 484, 1-(4-bromo-1-phenyl-3-(pyridin-2-yl)-1H-pyrazol-5-yl)-3-((3S,4R)-4-(3,4-difluorophenyl)-1-(2-methoxyethyl)pyrrolidin-3-yl)urea] came in with an IC50 of less than 100 nM.

Consider `COCCN1C[C@@H](NC(=O)Nc2c(C)c(OC[C@H]3COC(C)(C)O3)nn2-c2ccccc2)[C@H](c2ccc(F)c(F)c2)C1` [Example 76, 1-((3S,4R)-4-(3,4-difluorophenyl)-1-(2-methoxyethyl)pyrrolidin-3-yl)-3-(3-(((S)-2,2-dimethyl-1,3-dioxolan-4-yl)methoxy)-4-methyl-1-phenyl-1H-pyrazol-5-yl)urea], for which the IC50 was less than 100 nM.

For the compound `COCCN1C[C@@H](NC(=O)Nc2c(C(N)=O)c(C)nn2-c2ccccc2)[C@H](c2ccc(F)c(Cl)c2)C1` (relative stereo) [Example 623, 5-(3-((trans)-4-(3-chloro-4-fluorophenyl)-1-(2-methoxyethyl)pyrrolidin-3-yl)ureido)-3-methyl-1-phenyl-1H-pyrazole-4-carboxamide], the IC50 is less than 100 nM.

As for `COCCN1CC(NC(=O)Nc2c3c(nn2-c2ccccc2)CCC3)[C@H](c2cccc(OC)c2)C1` (stereo partly drawn) [Example 48, 1-((3,4-trans)-1-(2-methoxyethyl)-4-(3-methoxyphenyl)pyrrolidin-3-yl)-3-(2-phenyl-2,4,5,6-tetrahydrocyclopenta[c]pyrazol-3-yl)urea], the IC50 was in the range of 100 to 1000 nM.

`COCCN1C[C@@H](NC(=O)Nc2c(Br)c(COC)nn2-c2ccccc2)[C@H](c2ccc(F)c(F)c2)C1` [Example 404, 1-(4-bromo-3-(methoxymethyl)-1-phenyl-1H-pyrazol-5-yl)-3-((3S,4R)-4-(3,4-difluorophenyl)-1-(2-methoxyethyl)pyrrolidin-3-yl)urea] had an IC50 of less than 100 nM.
